Source: patent publication US7858635B2 (priority 2005, dated 2010)
Read-outs that look alike come from different tables or passages of the source.

Columns and labels:
[1] = target: T1, M1 muscarinic receptor (Homo sapiens, UniProt P11229); test: Functional mobilization of intracellular calcium (FLIPR, Fluo-3), M1-CHO cells; format: cell-based; settings: for Emax: 100% efficacy is the maximum response obtained with the Carbachol control, read-out: M1 Efficacy
T1 construct: expressed in transfected cells; host or cells: CHO cells (M1-CHO, under zeocin and G418 selection)
T1 sequence (P11229 1-460): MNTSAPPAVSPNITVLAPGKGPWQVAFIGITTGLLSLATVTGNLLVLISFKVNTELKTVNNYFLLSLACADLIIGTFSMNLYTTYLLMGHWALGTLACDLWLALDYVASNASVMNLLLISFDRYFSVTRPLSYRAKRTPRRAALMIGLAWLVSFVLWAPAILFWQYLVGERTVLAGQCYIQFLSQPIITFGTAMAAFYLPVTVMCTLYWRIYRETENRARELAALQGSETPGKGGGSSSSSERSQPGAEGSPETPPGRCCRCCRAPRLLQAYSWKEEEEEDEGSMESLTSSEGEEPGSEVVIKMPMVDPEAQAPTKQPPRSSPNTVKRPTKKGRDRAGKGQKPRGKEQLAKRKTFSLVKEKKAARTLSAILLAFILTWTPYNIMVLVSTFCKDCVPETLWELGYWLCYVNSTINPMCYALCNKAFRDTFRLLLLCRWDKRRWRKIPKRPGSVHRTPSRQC
Summary of the method: (§1)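 Intracellular calcium was tracked by fluorescence (488/540 nm) over 60 sec after compound addition to dye-loaded CHO cells expressing the receptor. Inhibitory activity used a 15 min pre-incubation before carbachol at the subtype EC80.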

[2] = target: T2, M4 muscarinic receptor (Homo sapiens, UniProt P08173); test: Functional mobilization of intracellular calcium (FLIPR, Fluo-3), M4-CHO cells; format: cell-based; settings: for Emax: 100% efficacy is the maximum response obtained with the Carbachol control, read-out: M4 Efficacy
T2 construct: expressed in transfected cells; host or cells: CHO cells (M4-CHO, under puromycin, zeocin and blasticidin selection)
T2 sequence (P08173 1-479): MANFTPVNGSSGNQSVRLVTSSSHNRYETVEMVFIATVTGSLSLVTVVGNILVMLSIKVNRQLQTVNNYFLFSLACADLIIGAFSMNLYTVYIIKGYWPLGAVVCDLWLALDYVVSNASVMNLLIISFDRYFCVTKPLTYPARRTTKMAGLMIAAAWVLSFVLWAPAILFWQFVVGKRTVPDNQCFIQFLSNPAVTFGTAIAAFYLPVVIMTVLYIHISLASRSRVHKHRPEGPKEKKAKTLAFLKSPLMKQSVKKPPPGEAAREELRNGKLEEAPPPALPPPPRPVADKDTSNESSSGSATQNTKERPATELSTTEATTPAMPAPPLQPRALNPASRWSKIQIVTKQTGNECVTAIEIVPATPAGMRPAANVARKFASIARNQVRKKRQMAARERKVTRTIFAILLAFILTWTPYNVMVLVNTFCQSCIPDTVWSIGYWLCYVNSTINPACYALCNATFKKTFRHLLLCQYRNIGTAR
Summary of the method: as §1

[3] = compound nos. 1-454, M1-CHO cells, calcium mobilization
[4] = compound nos. 1-454, M4-CHO cells, calcium mobilization

Compound | Emax ([1]; compound nos. 1-454) | M1 Activity [1, 3] | Emax ([2]; compound nos. 1-454) | M4 Activity [2, 4] | M1 Activity ([1]; compound nos. 1-454) | M4 Activity ([2]; compound nos. 1-454) | Emax ([1]; compound nos. 455-509) | M1 Activity ([1]; compounds 455-509) | Emax ([2]; compound nos. 455-509) | M4 Activity ([2]; compounds 455-509)
CCOC(=O)N1C2CCC1CC(N1CCC3(CC1)CN(C(=O)OCCOC)c1ccc(F)cc13)C2 (centres unmarked) [compound 90] | 65 to 85% | ++ (activity was measured to be between 0.7 μM and 3.0 μM) | < 55% | + (activity was measured to be greater than or equal to 4.0 μM) | – | – | – | – | – | –
COC(=O)N1CC2(CCN(C3CC4CCC(C3)N4C(=O)OC)CC2)c2cc(F)ccc21 (centres unmarked) [compound 235] | 65 to 85% | ++ (activity was measured to be between 0.7 μM and 3.0 μM) | 55 to 70% | + (activity was measured to be greater than or equal to 4.0 μM) | – | – | – | – | – | –
c1ccc2c(c1)NCC21CCN(CC2CCCCC2)CC1 [compound 342] | 65 to 85% | +++ (activity was measured to be less than or equal to 0.7 μM) | 55 to 70% | ++ (activity was measured to be between 0.1 μM and 4.0 μM) | – | – | – | – | – | –
Fc1ccc2c(c1)C1(CCN(C3CC4CCC(C4)C3)CC1)CN2 (centres unmarked) [compound 377] | 65 to 85% | – | 55 to 70% | – | +++ (activity was measured to be less than or equal to 0.7 μM) | ++ (activity was measured to be between 0.1 μM and 4.0 μM) | – | – | – | –
CCc1nsc(N2CCC(N3CCC4(CCN(C(=O)N(C)C)c5ccccc54)CC3)CC2)n1 [compound 455] | – | – | – | – | – | – | > 100% | +++ (activity was measured to be less than or equal to 2.0 μM) | 25 to 100% | ++ (activity was measured to be between 2.0 μM and 5.0 μM)
CCc1nsc(N2CCC(N3CCC4(CCN(C(C)=O)c5ccccc54)CC3)CC2)n1 [compound 489] | – | – | – | – | – | – | > 100% | +++ (activity was measured to be less than or equal to 2.0 μM) | 25 to 100% | ++ (activity was measured to be between 2.0 μM and 5.0 μM)
COCCOC(=O)N1CCC(CN2CCC3(CC2)CN(C(C)=O)c2ccc(F)cc23)CC1 [compound 26] | 65 to 85% | +++ (activity was measured to be less than or equal to 0.7 μM) | < 55% | ++ (activity was measured to be between 0.1 μM and 4.0 μM) | – | – | – | – | – | –
C#CCCOC(=O)N1CCC(N2CCC3(CC2)CN(C(=O)N(C)C)c2ccc(F)cc23)CC1 [compound 127] | 65 to 85% | +++ (activity was measured to be less than or equal to 0.7 μM) | < 55% | ++ (activity was measured to be between 0.1 μM and 4.0 μM) | – | – | – | – | – | –
CCOC(=O)N1C2CCC1CC(N1CCC3(CC1)C[C@H](NC(C)=O)c1ccccc13)C2 (some centres unmarked) [compound 359] | < 65% | ++ (activity was measured to be between 0.7 μM and 3.0 μM) | < 55% | ++ (activity was measured to be between 0.1 μM and 4.0 μM) | – | – | – | – | – | –
CCOC(=O)N1C2CCC1CC(N1CCC3(CC1)CN(S(=O)(=O)c1c(C)noc1C)c1ccc(F)cc13)C2 (centres unmarked) [compound 89] | 65 to 85% | +++ (activity was measured to be less than or equal to 0.7 μM) | < 55% | ++ (activity was measured to be between 0.1 μM and 4.0 μM) | – | – | – | – | – | –
CCOC(=O)N1CCC(N2CCC3(CC2)CN(C(=O)c2ccc(C)cc2)c2ccc(F)cc23)CC1 [compound 330] | < 65% | + (activity was measured to be greater than or equal to 3.0 μM) | < 55% | + (activity was measured to be greater than or equal to 4.0 μM) | – | – | – | – | – | –
C#CCOC(=O)N1CCC(N2CCC3(CC2)CN(C(C)=O)c2ccc(C)cc23)CC1 [compound 81] | < 65% | ++ (activity was measured to be between 0.7 μM and 3.0 μM) | < 55% | + (activity was measured to be greater than or equal to 4.0 μM) | – | – | – | – | – | –
CC(=O)N1CC2(CCN(C3CCN(c4nc(C)cs4)CC3)CC2)c2ccccc21 [compound 475] | – | – | – | – | – | – | 25 to 100% | ++ (activity was measured to be between 2.0 μM and 5.0 μM) | 25 to 100% | ++ (activity was measured to be between 2.0 μM and 5.0 μM)
O=C(O[C@@H]1CCOC1)N1CC2(CCN(C3CC4CCC(C3)N4C(=O)O[C@H]3CCOC3)CC2)c2cc(F)ccc21 (some centres unmarked) [compound 198] | 65 to 85% | ++ (activity was measured to be between 0.7 μM and 3.0 μM) | < 55% | + (activity was measured to be greater than or equal to 4.0 μM) | – | – | – | – | – | –
COCCOC(=O)N1C2CCC1CC(N1CCC3(CC1)CN(C(=O)OC)c1ccc(F)cc13)C2 (centres unmarked) [compound 33] | > 85% | +++ (activity was measured to be less than or equal to 0.7 μM) | > 70% | +++ (activity was measured to be less than or equal to 0.1 μM) | – | – | – | – | – | –
CCOC(=O)N1CCC(N2CCC3(CC2)CN(C(C)=O)c2ccc(C)cc23)CC1 [compound 92] | 65 to 85% | +++ (activity was measured to be less than or equal to 0.7 μM) | < 55% | ++ (activity was measured to be between 0.1 μM and 4.0 μM) | – | – | – | – | – | –
CCOC(=O)N1CCC(N2CCC3(CC2)CN(C(=O)c2ccncc2)c2ccc(F)cc23)CC1 [compound 260] | 65 to 85% | +++ (activity was measured to be less than or equal to 0.7 μM) | < 55% | + (activity was measured to be greater than or equal to 4.0 μM) | – | – | – | – | – | –
Fc1ccc2c(c1)C1(CCN(C3CCCCC3)CC1)CO2 [compound 152] | 65 to 85% | ++ (activity was measured to be between 0.7 μM and 3.0 μM) | > 70% | + (activity was measured to be greater than or equal to 4.0 μM) | – | – | – | – | – | –
CC(=O)N1CC2(CCN(C3CCCN(C(=O)OC(C)C)CC3)CC2)c2cc(F)ccc21 (centres unmarked) [compound 395] | < 65% | – | < 55% | – | +++ (activity was measured to be less than or equal to 0.7 μM) | + (activity was measured to be greater than or equal to 4.0 μM) | – | – | – | –
Fc1ccc2c(c1)C1(CCN(C3CC4CCC3C4)CC1)CN2 (centres unmarked) [compound 416] | < 65% | – | < 55% | – | + (activity was measured to be greater than or equal to 3.0 μM) | + (activity was measured to be greater than or equal to 4.0 μM) | – | – | – | –
